In the assay the target is T1, particulate guanylyl cyclase receptor A (pGC-A) (Homo sapiens, UniProt P16066).
T1 construct: expressed in transfected cells; host or cells: HEK293
T1 sequence (P16066 33-1061): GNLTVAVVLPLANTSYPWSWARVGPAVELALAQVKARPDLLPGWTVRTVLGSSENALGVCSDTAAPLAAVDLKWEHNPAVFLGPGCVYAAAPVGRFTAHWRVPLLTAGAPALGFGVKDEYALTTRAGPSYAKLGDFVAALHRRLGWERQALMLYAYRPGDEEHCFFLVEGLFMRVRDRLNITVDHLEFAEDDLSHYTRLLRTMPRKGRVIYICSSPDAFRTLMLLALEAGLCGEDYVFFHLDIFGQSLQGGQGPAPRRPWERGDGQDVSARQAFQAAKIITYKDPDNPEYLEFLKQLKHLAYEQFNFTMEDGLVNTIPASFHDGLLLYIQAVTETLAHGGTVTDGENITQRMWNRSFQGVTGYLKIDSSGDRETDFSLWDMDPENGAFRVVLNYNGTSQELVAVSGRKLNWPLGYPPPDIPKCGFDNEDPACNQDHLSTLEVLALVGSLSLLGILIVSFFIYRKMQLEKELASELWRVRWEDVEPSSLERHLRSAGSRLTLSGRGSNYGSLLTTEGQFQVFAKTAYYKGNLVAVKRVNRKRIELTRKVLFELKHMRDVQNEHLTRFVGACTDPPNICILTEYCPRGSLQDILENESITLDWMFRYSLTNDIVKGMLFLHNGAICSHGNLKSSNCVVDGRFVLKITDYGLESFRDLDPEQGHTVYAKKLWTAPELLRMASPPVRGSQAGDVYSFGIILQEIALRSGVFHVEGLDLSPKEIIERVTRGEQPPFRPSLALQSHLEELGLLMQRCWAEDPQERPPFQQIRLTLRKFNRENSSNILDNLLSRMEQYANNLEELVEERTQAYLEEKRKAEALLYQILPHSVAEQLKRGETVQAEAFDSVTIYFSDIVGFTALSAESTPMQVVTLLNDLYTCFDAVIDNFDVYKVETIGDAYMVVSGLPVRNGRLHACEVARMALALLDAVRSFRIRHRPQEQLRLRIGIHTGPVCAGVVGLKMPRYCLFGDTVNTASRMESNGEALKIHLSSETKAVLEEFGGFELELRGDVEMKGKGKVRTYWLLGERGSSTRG
T1 sequence (P01160 124-151 partner limits assumed): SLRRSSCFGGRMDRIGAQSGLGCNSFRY
Nature of the assay: cGMP production by HTRF in HEK293 cells overexpressing pGC-A, with ANP. The assay is classed as cell-based. The note with it: for Emax: HEK293, HEK293 cells overexpressing pGC-A, read-out: Max efficacy; for Emax / Max efficacy: cGMP normalized to maximal amount produced by an EC80 concentration of ANP; for EC50 / Max efficacy: HEK293 cells overexpressing pGC-A; for EC50: test compound plus EC20 concentration of ANP, cGMP by HTRF. The method in brief:
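Suspension cells stimulated 30 min at room temperature with test compound (10 μM stock in DMSO) plus ANP near EC20 in HBSS/5 mM HEPES/0.05% BSA. cGMP quantified by competitive HTRF immunoassay (Eu3+ cryptate anti-cGMP, d2-cGMP), normalized to cGMP from EC80 ANP; EC50 derived with or without ANP.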

“And” between values parts separate entries of the source, which are not always exact repeats. Equal entries are not always repeated.

As to `CN(C)CCCN1CCCC(C(=O)Nc2nc3c(F)cc(F)cc3s2)C1` (stereo not shown) [compound 231], the Emax amounted to 98% and the EC50 is 0.9 µM.

Turning to `CN(C)CCN1CCCC(C(=O)N(C)c2nc3c(F)cc(F)cc3s2)C1` (stereo not shown) [compound 232], the Emax came to 82% and the EC50 amounted to 2.1 µM.

As to `CN(C)CCN1CCCC(C(=O)Nc2nc3c(F)ccc(F)c3s2)C1` (stereo not shown) [compound 234], the EC50 was over 5 µM.

Turning to `CN(C)CCN1CCCC(C(=O)Nc2nc3c(F)cc(Cl)cc3s2)C1` (stereo not shown) [compound 235], the Emax is 113%; the Max efficacy is given as 113, 113%; the EC50 is 1.4 µM and 2.6 µM.

Consider `NCCN1CCCC(C(=O)Nc2nc3c(F)cc(F)cc3s2)C1` (stereo not shown) [compound 236], for which the Emax amounted to 85% and the EC50 came to 0.7 µM.

Turning to `CNCCN1CCCC(C(=O)Nc2nc3c(F)cc(F)cc3s2)C1` (stereo not shown) [compound 237], the Max efficacy was 74% and 51%.

For `CCN(CC)CCN1CCCC(C(=O)Nc2nc3c(F)cc(F)cc3s2)C1` (stereo not shown) [compound 238], the Emax came to 86%; the Max efficacy is 92%; the EC50 was 0.21 µM and 0.32 µM.

Turning to `O=C(Nc1nc2c(F)cc(F)cc2s1)C1CCCN(CCN2CCCC2)C1` (stereo not shown) [compound 239], the Emax came to 87%; the Max efficacy was 94% and 77%; the EC50 was 0.22 µM and 0.3 µM.

Take `O=C(Nc1nc2c(F)cc(F)cc2s1)C1CCCN(CCNCCO)C1` (stereo not shown) [compound 240]: the Emax is 105% and the EC50 was 0.7 µM.

As for `O=C(Nc1nc2c(F)cc(F)cc2s1)C1CCCN(CCN2CCOC2=O)C1` (stereo not shown) [compound 241], the Emax came out at 93% and the EC50 amounted to 1.6 µM.

In the case of `CN(CCO)CCN1CCCC(C(=O)Nc2nc3c(F)cc(F)cc3s2)C1` (stereo not shown) [compound 242], the Emax amounted to 105% and the EC50 is 0.7 µM.

Regarding `O=C(Nc1nc2c(F)cc(F)cc2s1)C1CCCN(CCN2CCCCC2)C1` (stereo not shown) [compound 243], the Emax was determined as 91%; the Max efficacy came to 77%; the EC50 is 0.47 µM and 0.2 µM.

As for `O=C(Nc1nc2c(F)cc(F)cc2s1)C1CCCN(CCN2CCOCC2)C1` (stereo not shown) [compound 244], the Emax is 94% and the EC50 is 0.28 µM.

`O=C(Nc1nc2c(F)cc(F)cc2s1)C1CCCN(CCN2CCCC2=O)C1` (stereo not shown) [compound 245]: the Emax was determined as 102%; the EC50 was 4.5 µM and 1.8 µM.

On to `O=C(Nc1nc2c(F)cc(F)cc2o1)C1CCCNC1` (stereo not shown) [compound 248], for which the EC50 was over 5 µM.

For `CN(C)CCN1CCCC(C(=O)Nc2nc3c(Cl)c(Cl)ccc3s2)C1` (stereo not shown) [compound 250], the Emax was determined as 60% and the EC50 turned out to be 1.4 µM.

For `CN(C)CCN1CCCC(C(=O)Nc2nc3c(Cl)cc(Cl)cc3s2)C1` (stereo not shown) [compound 251], the EC50 was over 5 µM.

For `CN(C)CCN1CCCC(C(=O)Nc2nc3c(Cl)ccc(Cl)c3s2)C1` (stereo not shown) [compound 252], the EC50 was over 5 µM.

In the case of `CN(C)CCN1CCCC(C(=O)Nc2nc3c(Cl)cc(F)cc3s2)C1` (stereo not shown) [compound 253], the Emax was 72% and the EC50 is 0.05 µM.

For `CN(C)C(=O)N1CCCC(C(=O)Nc2nc3c(F)cc(F)cc3s2)C1` (stereo not shown) [compound 255], the Emax turned out to be 86% and the EC50 was determined as 0.6 µM.

Consider `O=C(Nc1nc2c(F)cc(F)cc2s1)C1CCCN(CCN2CCCC2C(=O)O)C1` (stereo not shown) [compound 259], for which the Emax was 74% and the EC50 is 1.3 µM.

With `O=C(O)CNCCN1CCCC(C(=O)Nc2nc3c(F)cc(F)cc3s2)C1` (stereo not shown) [compound 260], the EC50 is over 5 µM.

As for `CN(C)CCN1CC(O)CC(C(=O)Nc2nc3c(F)cc(F)cc3s2)C1` (stereo not shown) [compound 262], the Emax turned out to be 86% and the EC50 amounted to 0.4 µM.

In the case of `O=C(Nc1nc2c(F)cc(F)cc2s1)C1CNCC(O)C1` (stereo not shown) [compound 263], the Emax worked out at 45% and the concentration for a half-maximal effect (EC50) was 1.3 µM.

`COC1CNCC(C(=O)Nc2nc3c(F)cc(F)cc3s2)C1` (stereo not shown) [compound 265]: the Emax worked out at 75% and the EC50 turned out to be 1.7 µM.

As to `O=C(O)C1CNCC(C(=O)Nc2nc3c(F)cc(F)cc3s2)C1` (stereo not shown) [compound 271], the EC50 was over 5 µM.

Consider `CCN(C)C(=O)N1CCCC(C(=O)Nc2nc3c(F)cc(F)cc3s2)C1` (stereo not shown) [compound 274], for which the Emax stood at 62%; the Max efficacy is 72%; the EC50 was 3.6 µM and 1.2 µM.

Take `O=C(Nc1nc2c(F)cc(F)cc2s1)C1CCCN(C(=O)N2CCCC2)C1` (stereo not shown) [compound 275]: the EC50 is over 5 µM.

`CCN(CC)C(=O)N1CCCC(C(=O)Nc2nc3c(F)cc(F)cc3s2)C1` (stereo not shown) [compound 276]: the Emax was determined as 49%; the EC50 is 1.6 µM and > 5 µM.

As to `CCNC(=O)N1CCCC(C(=O)Nc2nc3c(F)cc(F)cc3s2)C1` (stereo not shown) [compound 277], the concentration for a half-maximal effect (EC50) is over 5 µM.

Consider `CC(C)NC(=O)N1CCCC(C(=O)Nc2nc3c(F)cc(F)cc3s2)C1` (stereo not shown) [compound 278], for which the Emax was found to be 70% and the EC50 stood at 2.6 µM.

As to `O=C(Nc1nc2c(F)cc(F)cc2s1)C1CCCN(C(=O)NCc2ccccc2)C1` (stereo not shown) [compound 279], the EC50 was over 5 µM.

Regarding `O=C(Nc1nc2c(F)cc(F)cc2s1)C1CCCN(C(=O)Nc2ccccc2)C1` (stereo not shown) [compound 280], the EC50 is over 5 µM.

For the compound `CNC(=O)N1CCCC(C(=O)Nc2nc3c(F)cc(F)cc3s2)C1` (stereo not shown) [compound 281], the Emax was found to be 53% and the EC50 stood at 1.3 µM.

As to `CN(C)C(=O)N1CCCC(C(=O)Nc2nc3c(Cl)cc(F)cc3s2)C1` (stereo not shown) [compound 282], the Emax was found to be 61% and the EC50 is 0.18 µM.

These data come from patent publication US20250092030A1, “ENHANCERS OF PARTICULATE GUANYLYL CYCLASE RECEPTOR A” (Mayo Foundation for Medical Education and Research, priority 2023, published 2025).
